Data: PubChem BioAssay (NCI)
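Cells were grown in 96-well plates and exposed to each compound for 48 hours at five concentrations; endpoints were interpolated linearly between bracketing concentrations, or set to the highest concentration if not reached. The concentration for 50% growth inhibition is given as GI50. TGI denotes the concentration required for complete inhibition of growth.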

Legend:
Assay in all cases: DTP human tumour cell line panel, 48 h
HOP-62 NSCLC = system: HOP-62 NSCLC
HOP-92 NSCLC = system: HOP-92 NSCLC
KM12 colon = system: KM12 colon
M14 melanoma = system: M14 melanoma
NCI-H460 lung = system: NCI-H460 lung
OVCAR-4 ovarian = system: OVCAR-4 ovarian
SF-295 CNS = system: SF-295 CNS
SF-539 CNS = system: SF-539 CNS
SW-620 colon = system: SW-620 colon
NCI/ADR-RES ovarian = system: NCI/ADR-RES ovarian

Row | Compound | TGI (HOP-62 NSCLC) [µM] | TGI (HOP-92 NSCLC) [µM] | TGI (KM12 colon) [µM] | TGI (M14 melanoma) [µM] | TGI (NCI-H460 lung) [µM] | TGI (OVCAR-4 ovarian) [µM] | TGI (SF-295 CNS) [µM] | TGI (SF-539 CNS) [µM] | TGI (SW-620 colon) [µM] | TGI (NCI/ADR-RES ovarian) [µM] | GI50 (NCI/ADR-RES ovarian) [µM] | GI50 (HOP-62 NSCLC) [µM] | GI50 (KM12 colon) [µM] | GI50 (M14 melanoma) [µM] | GI50 (NCI-H460 lung) [µM] | GI50 (OVCAR-4 ovarian) [µM] | GI50 (SF-295 CNS) [µM] | GI50 (SF-539 CNS) [µM] | GI50 (SW-620 colon) [µM] | GI50 (HOP-92 NSCLC) [µM]
1 | CN(C)C(=S)/N=c1\ssc(=S)n1Cc1ccco1 | > 63.1 | > 100 | > 100 | > 100 | > 64.8 | 66.8 | > 23 | 7.66 | > 100 | – | – | – | – | – | – | – | – | – | – | –
2 | C=C(C)C1CCC2=CC(CC3(C)OC3C3=CC(C(=O)OC)=C(C1)O3)OC2=O (stereo not given) | > 100 | > 100 | > 100 | > 100 | > 100 | – | > 100 | > 100 | > 100 | > 100 | – | – | – | – | – | – | – | – | – | –
3 | COc1cccc2c(SCC(=O)Nc3ccccc3-c3ccccc3NC(=O)CSc3c4ccccc4nc4c(OC)cccc34)c3ccccc3nc12 | > 100 | – | > 100 | > 100 | > 100 | > 100 | > 100 | > 100 | – | – | – | – | – | – | – | – | – | – | – | –
4 | O=C1C(Cl)=C(Cl)C(=O)N1c1cccc(C(F)(F)F)c1 | > 100 | > 100 | > 100 | > 100 | > 100 | > 100 | > 100 | > 100 | > 100 | – | – | – | – | – | – | – | – | – | – | –
5 | CC(=O)c1ccc2c3c1[C@H]1O[C@H]1c1cccc(c1-3)[C@@H]1O[C@H]21 | 8.83 | 3.69 | 5.31 | 3.38 | – | 3.59 | 18 | – | 3.01 | 5.68 | 2.3 | – | – | – | – | – | – | – | – | –
6 | COc1cc([C@@H]2OC(=O)C3C2C(=O)O[C@H]3c2ccc(O)c(OC)c2)ccc1O (stereo not given in full) | > 100 | > 100 | > 100 | > 100 | > 100 | > 100 | > 100 | > 100 | > 100 | – | – | – | – | – | – | – | – | – | – | –
7 | Cc1ccnc2c(NC(C)CCCN)cc(O)c(O)c12 (stereo not given) | > 100 | – | > 100 | > 100 | > 100 | 10.1 | > 100 | 41.9 | 78.7 | > 100 | 16.3 | 26.1 | 31.5 | 29.7 | 27.4 | 3.11 | 35.2 | 18.5 | 19.6 | –
8 | CC(=O)[CH-]C(=O)c1ccccc1.CC(=O)[CH-]C(=O)c1ccccc1.CC[C@H](/C=C/C(C)[C@H]1CCC2[C@@H]3CC=C4C[C@@H]([O-])CC[C@]4(C)C3CC[C@@]21C)C(C)C.CC[C@H](/C=C/C(C)[C@H]1CCC2[C@@H]3CC=C4C[C@@H]([O-])CC[C@]4(C)C3CC[C@@]21C)C(C)C.Cl.[Ti+4] (stereo not given in full) | > 25 | – | > 25 | > 25 | > 25 | > 25 | > 25 | > 25 | > 25 | – | – | > 25 | > 25 | > 25 | > 25 | > 25 | > 25 | > 25 | > 25 | –
9 | Cc1cc(Cl)nc(N(CCCNc2ccnc3cc(Cl)ccc23)Cc2cccs2)n1 | 10.7 | 7.78 | 11 | 2.91 | 11 | 25.6 | – | 5.85 | 8.75 | 6.53 | 1.06 | 1.83 | 2.61 | 1.23 | 1.56 | 2.81 | – | 1.81 | 1.1 | 1.74
10 | CN(C)N=Nc1cccc(C(N)=O)c1 | – | > 100 | > 100 | > 100 | > 100 | > 100 | > 100 | > 100 | > 100 | – | – | – | – | – | – | – | – | – | – | –
11 | COc1cc2c3c(n([C@@H]4CCOC4)c(=O)c2cc1OC)-c1cc2c(cc1C3=O)OCO2 | – | – | – | > 100 | – | – | 0.0219 | 0.0208 | > 100 | > 100 | < 0.01 | – | – | < 0.01 | – | – | < 0.01 | < 0.01 | < 0.01 | –
12 | O=C1NC2C3CC(OCc4ccccc4)(OCc4ccccc4)C2OC3O1 (stereo not given) | > 50 | > 50 | > 50 | > 50 | – | – | > 50 | > 50 | > 50 | – | – | – | – | – | – | – | – | – | – | –
13 | O=C1C(Cl)=C(Nc2cc(Cl)ccc2O)C(=O)N1Cc1ccccc1 | > 61 | – | 48.2 | 33.3 | 34.3 | 38.1 | 38.4 | 36.3 | 38.5 | 37.4 | 18.9 | 34 | 22 | 17.1 | 17.7 | 17.2 | 18.3 | 20 | 19 | –
14 | Nn1c(-c2cccc(Cl)c2)nc2ccccc2c1=O | > 100 | > 100 | > 100 | > 100 | > 100 | > 100 | > 100 | > 100 | > 100 | – | – | – | – | – | – | – | – | – | – | –
15 | O=C(O)/C(Cl)=C(Cl)/C=N/NC(=O)c1cc2ccccc2cc1O | > 100 | > 100 | > 100 | 56 | > 100 | 72 | > 100 | > 100 | > 100 | – | – | – | – | – | – | – | – | – | – | –
16 | COC(=O)c1ccc(C(=O)OC)c2nc3cc(Cl)ccc3nc12 | > 100 | > 100 | > 100 | > 100 | > 100 | > 100 | > 100 | > 100 | > 100 | – | – | – | – | – | – | – | – | – | – | –
17 | Cc1ccc(C2[C@H]3C(=O)N(c4ccc(Cc5ccc(N6C(=O)[C@@H]7ON(c8ccccc8)C(c8ccc(C)cc8)[C@@H]7C6=O)cc5)cc4)C(=O)[C@H]3ON2c2ccccc2)cc1 (stereo not given in full) | > 100 | > 100 | > 100 | > 100 | > 100 | > 100 | > 100 | > 100 | > 100 | – | – | – | – | – | – | – | – | – | – | –
18 | CC(C)N1C(C)[C@@H](c2ccccc2)O[P@@]1(=O)CC1=CCCCC1 (stereo not given in full) | > 100 | > 100 | > 100 | > 100 | > 100 | – | > 100 | > 100 | > 100 | – | – | – | – | – | – | – | – | – | – | –
19 | O=C1CC(Cc2n[nH]c3c2CCCC3)CC(=O)N1 | > 100 | > 100 | > 100 | > 100 | – | > 100 | > 100 | > 100 | > 100 | > 100 | – | – | – | – | – | – | – | – | – | –
